Results taken from patent US20250223268A1, “4-Methylsulfonylbenzamide Compound, Preparation Method, Herbicidal Composition And Use” (Jiangsu Flag Chemical Industry Co., Ltd., priority 2022, published 2025).

How the values were obtained:
Format in all cases: in vivo
[1] = tested on: Leptochloa chinensis; assay: Greenhouse herbicidal activity assay, post-emergence; settings: Post-emergence test, rate 150 g a.i./hm^2, grade by fresh weight inhibition rate
Summary of the method: (§1)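 Foliar spray at 3-6 leaves; pot-grown in nutrient soil in growth chamber; air-dried post-spray. Read-out at 14-21 d: fresh weight inhibition, graded A (≥80% to 100%) down to E (<20%); NT = not tested.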

[2] = tested on: Cyperus iria; assay: as above; settings: Post-emergence test, rate 150 g a.i./hm^2, grade by fresh weight inhibition rate
Summary of the method: as §1

[3] = tested on: Digitaria sanguinalis; assay: as above; settings: Post-emergence test, rate 150 g a.i./hm^2, grade by fresh weight inhibition rate
Summary of the method: as §1

[4] = tested on: Echinochloa crusgalli; assay: as above; settings: Post-emergence test, rate 150 g a.i./hm^2, grade by fresh weight inhibition rate
Summary of the method: as §1

[5] = tested on: Eclipta prostrata; assay: as above; settings: Post-emergence test, rate 150 g a.i./hm^2, grade by fresh weight inhibition rate
Summary of the method: as §1

[6] = tested on: Leptochloa chinensis; assay: Greenhouse herbicidal activity and crop safety comparison (Test Example 2); settings: Rate 150 g/ha
Summary of the method: (§2)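 Fresh weight inhibition, banded into grades A to E (E <20%), was rated 14-21 days after foliar spraying of 3-6 leaf plants, or 14-30 days after a soil spray applied 24 h post-sowing.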

[7] = tested on: Echinochloa crusgalli; assay: as above; settings: Rate 150 g/ha
Summary of the method: as §2

[8] = tested on: Oryza sativa subsp. indica; assay: as above; settings: Rate 150 g/ha
Summary of the method: as §2

[9] = tested on: Oryza sativa subsp. japonica; assay: as above; settings: Rate 150 g/ha
Summary of the method: as §2

SMILES | Control efficacy grade, Leptochloa chinensis [1] | Control efficacy grade, Cyperus iria [2] | Control efficacy grade, Digitaria sanguinalis [3] | Control efficacy grade, Echinochloa crusgalli [4] | Control efficacy grade, Eclipta prostrata [5] | Leptochloa chinensis, control efficacy grading (fresh weight inhibition rate) [6] | Echinochloa crusgalli, control efficacy grading (fresh weight inhibition rate) [7] | Oryza sativa subsp. indica, grading of fresh weight inhibition rate (crop safety) [8] | Oryza sativa subsp. japonica, grading of fresh weight inhibition rate (crop safety) [9] | pest or weed control at 150 g/ha ([1]; Dinebra chinensis, read-out: Control efficacy grade, Leptochloa chinensis) | pest or weed control at 150 g/ha ([2]; Cyperus iria, read-out: Control efficacy grade, Cyperus iria) | pest or weed control at 150 g/ha ([3]; Digitaria sanguinalis, read-out: Control efficacy grade, Digitaria sanguinalis) | pest or weed control at 150 g/ha ([4]; Echinochloa crus-galli, read-out: Control efficacy grade, Echinochloa crusgalli) | pest or weed control at 150 g/ha ([5]; Eclipta prostrata, read-out: Control efficacy grade, Eclipta prostrata) | inhibition at 150 g/ha ([6]; Dinebra chinensis, read-out: Leptochloa chinensis, control efficacy grading (fresh weight inhibition rate)) | inhibition at 150 g/ha ([7]; Echinochloa crus-galli, read-out: Echinochloa crusgalli, control efficacy grading (fresh weight inhibition rate))
CC(C)S(=O)(=O)c1c(S(C)(=O)=O)ccc(C(=O)Nc2nnco2)c1Cl [Compound 3-276] | A (Fresh weight inhibition rate≥80% to 100%) | A (Fresh weight inhibition rate≥80% to 100%) | A (Fresh weight inhibition rate≥80% to 100%) | A (Fresh weight inhibition rate≥80% to 100%) | A (Fresh weight inhibition rate≥80% to 100%) | A (Fresh weight inhibition rate≥80% to 100%) | A (Fresh weight inhibition rate≥80% to 100%) | E (Fresh weight inhibition rate<20%) | E (Fresh weight inhibition rate<20%) | – | – | – | – | – | – | –
CS(=O)(=O)c1ccc(C(=O)Nc2nnco2)c(Cl)c1S(=O)(=O)CC1CC1 [Compound 3-302] | A (Fresh weight inhibition rate≥80% to 100%) | A (Fresh weight inhibition rate≥80% to 100%) | A (Fresh weight inhibition rate≥80% to 100%) | A (Fresh weight inhibition rate≥80% to 100%) | A (Fresh weight inhibition rate≥80% to 100%) | A (Fresh weight inhibition rate≥80% to 100%) | A (Fresh weight inhibition rate≥80% to 100%) | E (Fresh weight inhibition rate<20%) | E (Fresh weight inhibition rate<20%) | – | – | – | – | – | – | –
CS(=O)(=O)c1ccc(C(=O)Nc2nnco2)c(Cl)c1S(=O)(=O)C1CC1 [Compound 3-307] | A (Fresh weight inhibition rate≥80% to 100%) | A (Fresh weight inhibition rate≥80% to 100%) | A (Fresh weight inhibition rate≥80% to 100%) | A (Fresh weight inhibition rate≥80% to 100%) | A (Fresh weight inhibition rate≥80% to 100%) | A (Fresh weight inhibition rate≥80% to 100%) | A (Fresh weight inhibition rate≥80% to 100%) | E (Fresh weight inhibition rate<20%) | E (Fresh weight inhibition rate<20%) | – | – | – | – | – | – | –
CS(=O)(=O)c1ccc(C(=O)Nc2nnco2)c(Cl)c1S(=O)(=O)C1CCC1 [Compound 3-312] | A (Fresh weight inhibition rate≥80% to 100%) | A (Fresh weight inhibition rate≥80% to 100%) | A (Fresh weight inhibition rate≥80% to 100%) | A (Fresh weight inhibition rate≥80% to 100%) | A (Fresh weight inhibition rate≥80% to 100%) | A (Fresh weight inhibition rate≥80% to 100%) | A (Fresh weight inhibition rate≥80% to 100%) | E (Fresh weight inhibition rate<20%) | E (Fresh weight inhibition rate<20%) | – | – | – | – | – | – | –
CS(=O)(=O)c1ccc(C(=O)Nc2nnco2)c(Cl)c1S(=O)(=O)C1CCCC1 [Compound 3-317] | A (Fresh weight inhibition rate≥80% to 100%) | A (Fresh weight inhibition rate≥80% to 100%) | A (Fresh weight inhibition rate≥80% to 100%) | A (Fresh weight inhibition rate≥80% to 100%) | A (Fresh weight inhibition rate≥80% to 100%) | A (Fresh weight inhibition rate≥80% to 100%) | A (Fresh weight inhibition rate≥80% to 100%) | E (Fresh weight inhibition rate<20%) | E (Fresh weight inhibition rate<20%) | – | – | – | – | – | – | –
CS(=O)(=O)c1ccc(C(=O)Nc2nnco2)c(Cl)c1S(=O)(=O)CC(F)(F)F [Compound 3-327] | A (Fresh weight inhibition rate≥80% to 100%) | A (Fresh weight inhibition rate≥80% to 100%) | B (Fresh weight inhibition rate≥260% to <80%) | A (Fresh weight inhibition rate≥80% to 100%) | A (Fresh weight inhibition rate≥80% to 100%) | A (Fresh weight inhibition rate≥80% to 100%) | A (Fresh weight inhibition rate≥80% to 100%) | E (Fresh weight inhibition rate<20%) | E (Fresh weight inhibition rate<20%) | – | – | – | – | – | – | –
C=CCS(=O)(=O)c1c(S(C)(=O)=O)ccc(C(=O)Nc2nnco2)c1Cl [Compound 3-342] | A (Fresh weight inhibition rate≥80% to 100%) | A (Fresh weight inhibition rate≥80% to 100%) | A (Fresh weight inhibition rate≥80% to 100%) | A (Fresh weight inhibition rate≥80% to 100%) | A (Fresh weight inhibition rate≥80% to 100%) | A (Fresh weight inhibition rate≥80% to 100%) | A (Fresh weight inhibition rate≥80% to 100%) | E (Fresh weight inhibition rate<20%) | E (Fresh weight inhibition rate<20%) | – | – | – | – | – | – | –
CCCS(=O)(=O)c1c(S(C)(=O)=O)ccc(C(=O)Nc2nnc(CC)o2)c1Cl [Compound 3-387] | A (Fresh weight inhibition rate≥80% to 100%) | A (Fresh weight inhibition rate≥80% to 100%) | A (Fresh weight inhibition rate≥80% to 100%) | A (Fresh weight inhibition rate≥80% to 100%) | A (Fresh weight inhibition rate≥80% to 100%) | A (Fresh weight inhibition rate≥80% to 100%) | A (Fresh weight inhibition rate≥80% to 100%) | E (Fresh weight inhibition rate<20%) | E (Fresh weight inhibition rate<20%) | – | – | – | – | – | – | –
CCc1nnc(NC(=O)c2ccc(S(C)(=O)=O)c(S(=O)(=O)C(C)C)c2Cl)o1 [Compound 3-392, 2-chloro-N-(5-ethyl-1,3,4-oxadiazol-2-yl)-3-(isopropylsulfonyl)-4-(methylsulfonyl)benzamide] | – | – | – | – | – | – | – | E (Fresh weight inhibition rate<20%) | E (Fresh weight inhibition rate<20%) | 80 to 100% | 80 to 100% | 80 to 100% | 80 to 100% | 80 to 100% | 80 to 100% | 80 to 100%
CCc1nnc(NC(=O)c2ccc(S(C)(=O)=O)c(S(=O)(=O)CC3CC3)c2Cl)o1 [Compound 3-418] | A (Fresh weight inhibition rate≥80% to 100%) | A (Fresh weight inhibition rate≥80% to 100%) | A (Fresh weight inhibition rate≥80% to 100%) | A (Fresh weight inhibition rate≥80% to 100%) | A (Fresh weight inhibition rate≥80% to 100%) | A (Fresh weight inhibition rate≥80% to 100%) | A (Fresh weight inhibition rate≥80% to 100%) | E (Fresh weight inhibition rate<20%) | E (Fresh weight inhibition rate<20%) | – | – | – | – | – | – | –
